Entries after “also recorded” stand apart in the source; their conditions may differ.
Assays:
GLAST = assay: Immunocytochemistry of cultured astrocytes, GLAST staining; type: cell-based, rat; settings: treated astrocytes
Protocol: Primary astrocyte-enriched cultures were plated onto sterile 18 mm glass coverslips. After three washes in PBS, cells were permeabilized in 5% glacial acetic acid/95% ethanol (acid-alcohol) for 10 minutes. After washing, cells were incubated in a 1% normal goat serum for 30 minutes and then overnight at 4° C. in primary mouse anti-GFAP (1:500), rabbit anti-GLT-1 (1:500) or guinea pig anti-GLAST (1:2000). The following day, cells were washed and then incubated for 2 hours at room temperature with goat anti-mouse Alexa Fluor™-555 (Invitrogen Corporation, Carlsbad, Calif.) goat anti-guinea pig Alexa Fluor™-488 (Invitrogen Corporation, Carlsbad, Calif.) or goat anti-rabbit Alexa Fluor™-488 (Invitrogen Corporation, Carlsbad, Calif.; all at 1:250). Finally, cells were post-fixed in acid-alcohol and mounted with Vectashield (Vector Labs, Burlingame, Calif.) containing 4′,6-diamidino-2-phenylindole dihydrochloride hydrate (DAPI, Sigma Chemical Co., St Louis, Mo.), in order to visualize cell nuclei. The sections were examined with a fluorescence microscope, and images were captured with a Q-Fire cooled camera (Olympus, Melville, N.Y.). Confocal microscopy was also performed using a Zeiss LSM 510 Meta confocal microscope (Carl Zeiss AG, Oberkochen, Germany). Merged color images were processed using Adobe Photoshop 7.0 (Adobe Systems, San Jose, Calif.).

[1] = tested on: Na+-dependent glutamate transport; assay: Na+-dependent [3H]-glutamate uptake in cultured astrocytes; type: cell-based, rat
Protocol: Primary astrocytes were plated in 6-well plates, as described above. […] Where indicated, 100 μM dihydrokainate (DHK) was added to wells for 10 minutes before the addition of the substrate. Subsequently, [^3H]-glutamate in Na^+ Krebs buffer or Na^+-free Krebs buffer (choline buffer) was added for 4 minutes at 37° C. The reaction was stopped by washing three times with ice cold buffer (0.05 M Tris/0.16 M NaCl, pH 7.4), and cells were lysed with 1 ml 0.1 N NaOH. The radioactivity in a 500 μl lysate aliquot was determined by liquid scintillation counting and a fraction of the lysate was also used for determination of protein concentration using the Lowry method (DC assay, Bio-Rad, Hercules, Calif.). Na^+-dependent transport was calculated as the difference in the radioactivity accumulated in the presence and absence of Na^+ and calculated as nmol/mg protein/min. Results are expressed as uptake relative to control samples.

GLT-1 mRNA = assay: Real Time RT-PCR of ipsilateral lumbar spinal cord, GLT-1 mRNA; type: in vivo, rat; settings: daily intrathecal
Protocol: Tissue was collected from 4-5 rats/group on postoperative days 4 or 12. In order to obtain both mRNA and protein from the same tissue sample, the L5 region of the spinal cord (ipsilateral to the injury), was isolated and placed in PBS supplemented with protease inhibitor cocktail (1:1000, Sigma Chemical Co., St. Louis, Mo.) and RNase inhibitor (0.75 U/μL Ambion, Austin, Tex.). Samples were sonicated in five one-second bursts at half-maximal power, centrifuged at 6500 rpm for 15 minutes at 4° C. Protein-containing supernatants were collected and stored at −80° C. until further processing by Western blot analysis. […]
Real time RT-PCR reactions were carried out in a total reaction volume of 25 μL containing a final concentration of 1.5 U Platinum Taq DNA polymerase (Invitrogen Corporation, Carlsbad, Calif.); 20 mM Tris HCl (pH 8.4); 50 mM KCl; 3 mM MgCl2; 200 μM dGTP, dCTP, and dATP; 400 μM dUTP and 1 U of UDG (uracyl DNA glycosylase); 900 nM of forward and reverse primers; 300 nM Taqman probe; and 5 μL of a 10-fold dilution of cDNA (50 ng) from the RT step. The iCycler™ Multicolor Real-Time PCR detection system (Bio-Rad, Hercules, Calif.) was used to quantify PCR product. […] The relative fold change from control was then expressed by calculation of 2^−ΔΔC^T for each sample and the results are expressed as the group mean fold change±SEM.

[2] = tested on: cyclic-adenosine-5′,3′-monophosphate (cAMP)-specific phosphodiesterase (PDE IV); settings: literature; cited from earlier work

CCCn1cnc2c1c(=O)n(CCCCC(C)=O)c(=O)n2C [propentofylline]
GLAST staining (GLAST): slightly increased GLAST staining | sensitivity of increased glutamate transport to DHK inhibition ([1]; 100 μM DHK for 10 minutes before substrate): sensitive to DHK inhibition | increase in glutamate uptake ([1]; 100 μM, 7 days): 1.7 fold | increase in Na+-dependent glutamate transport ([1]; 1000 μM, 7 days): 2.1 fold | glutamate uptake, in words ([1]; 7-day treated cultures): dose-dependent increase in glutamate uptake | GLT-1 mRNA in lumbar spinal cord (GLT-1 mRNA; day 4 post-transection): enhanced; also recorded: significantly increased levels of GLT-1 mRNA | GLT-1 mRNA in lumbar spinal cord (GLT-1 mRNA; day 12 post-transection): enhanced; also recorded: significantly increased levels of GLT-1 mRNA | PDE IV [2]: inhibit
